Source: PMC5866837, “Towards a generic physiologically based kinetic model to predict in vivo uterotrophic responses in rats by reverse dosimetry of in vitro estrogenicity data” (Archives of Toxicology, 2017)
Like-named read-outs stand apart in the source and are kept apart here. One block for each compound: values may come before it.

Legend:
[1] = Rapid equilibrium dialysis (RED), fraction unbound in in vitro assay medium; assay type: in vitro ADME; details: bovine, assay medium with 5% FCS, RED 5 h at 37 °C, read-out: f ub (fraction unbound)
Procedure: The assay medium used in the ER-CALUX and the proliferation assay contains 5% FCS, so the RED assay was performed using the assay medium for these two assays and for rat serum. The f ub was determined using the protocol described by Waters et al. ([2008]). The RED device insert has two chambers, a plasma and a buffer chamber. […] After incubating for 5 h at 37 °C at 250 rpm on an orbital shaker, the system reaches equilibrium (van […] et al. [2011]). 25 μL of post-dialysis samples were collected from the plasma and buffer chambers in separate tubes. Simultaneously, 25 μL of corresponding buffer (PBS) was added to the sample taken from the plasma chamber and the same volume of corresponding rat serum or in vitro medium was added to the sample taken from the buffer chamber. Then, 300 μL cold precipitation buffer (90/10 ACN/water) was added to both samples to precipitate the proteins and release the compound. The samples were put on ice for 30 min and subsequently centrifuged for 15 min at 15,000×g (CT 15RE, Hitachi Koki Co., Ltd). Then, the supernatants were collected for UPLC analysis. By determining the compound concentration in each chamber, the fraction unbound can be calculated with the following equation: f ub = concentration in buffer chamber/concentration in plasma chamber (van […] et al. [2011]; Waters et al. [2008]). […]

human ERs = system: human ERs; design: method as in Kolle et al. [2010]; Wang et al. [2014]; details: ref Kolle et al. [2010]; Wang et al. [2014]; cited from earlier work
uterus weight in rats [2] = test: In vivo uterotrophic assay and BMD analysis (PROAST) of its data; design: species or system rat; details: for BMD (BMD10) / BMDL (BMDL10) / BMDU (BMDU10): PROAST exponential model, BMR 10%, absolute uterus weight; for BMDL (BMDL10) / BMDU (BMDU10): in mg/kg
Procedure: To that end, a literature research was performed using the search terms uterotrophic assay, rats, oral administration.
Furthermore, benchmark dose (BMD) values derived from the predicted dose–response data were compared with BMD values derived from the dose–response data from the uterotrophic assay as reported in the literature. To that end, BMD modelling was applied on dose–response data using the exponential model for continuous data of the PROAST software from The National Institute for Public Health and the Environment of the Netherlands (RIVM) version 38.9 (Slob [2002]). The benchmark response (BMR) was defined as a 10% increase of response change compared to the control. The predicted dose level with an estimated 10% extra risk obtained is shown as BMD10. The lower and upper limits of the 95% confidence interval on the BMD10 are defined as BMDL10 and BMDU10. In PROAST, BMD values are only reported if the model fit of the data is accepted, so when the software provided BMD values, it was assumed that the data had been adequately modelled. […] For in vivo studies, the absolute uterus weight values were used as input for the response in the continuous model.

[3] = rat, oral, read-out: In vivo C max, cited from earlier work
uterus weight in rats [4] = details: oral gavage, cited from earlier work
[5] = system: uterotrophic growth in rats; test: PBK modelling-based reverse dosimetry of YES assay data and BMD analysis; design: species or system rat
Excerpt: For each in vitro concentration–response dataset from the three assays, the PBK modelling-based reverse dosimetry approach was used to predict the dose levels that are required to reach concentrations in blood that were applied in these assays. As it is assumed that the fraction unbound (f ub) of the parent compound induces the toxicity, the possible difference in the f ub in the in vitro assay medium and in rat serum was corrected prior to applying reverse dosimetry. The f ub of E2 and BPA were determined for in vitro assay media and rat serum as described below. PBK modelling-based reverse dosimetry. […] Consequently, for reverse dosimetry, the in vitro unbound concentration (C ub, in vitro) was set equal to the unbound C max in blood (C ub, in vivo) to determine the dose that is required to cause an in vivo estrogenic effect. The C ub, in vitro was estimated based on the equation: C ub, in vitro = C in vitro × f ub, in vitro, where C in vitro is the nominal concentration applied in the in vitro assay and f ub, in vitro is the fraction unbound of the chemical in the in vitro assay medium as determined using the RED assay. The C ub, in vivo was estimated based on the equation: C ub, in vivo = C in vivo × f ub, in vivo, where C in vivo is the nominal blood concentration in rat and fub, in vivo is the fub in rat serum. Assuming that for the prediction of in vivo toxicity, the C ub, in vitro is the same as C ub, in vivo, the nominal blood concentration in rat can be described by the following equation: C in vivo = C ub, in vivo/f ub, in vivo = C ub, in vitro/f ub, in vivo = (C in vitro × f ub, in vitro)/fub, in vivo. By calculating with the PBK model which dose is required to reach a C in vivo, an in vitro concentration can be translated into an in vivo dose. Performing this exercise for all the concentrations applied in the in vitro assays, the in vitro concentration–response curves were translated into predicted in vivo dose–response curves. […]

[6] = in vivo data of Kanno et al. 2003 (doses in mg/kg bw)
[7] = in vivo data of Tinwell and Ashby 2004 (doses in mg/kg bw)
[8] = in vivo data of Odum et al. 1997 (doses in mg/kg bw)

SMILES: CC(C)(c1ccc(O)cc1)c1ccc(O)cc1 [BPA, bisphenol A]
- fraction unbound at 5 h, 5 µM [1]: 0.461 ± 0.035
- Higher concentrations required for an estrogenic response in the YES assay than in MCF-7/BOS proliferation and U2OS ER-CALUX assays (human ERs): 3 orders of magnitude
- Fold difference in BMD10 values between the two in vivo studies (uterus weight in rats [2]; Kanno et al. 2003 vs Tinwell and Ashby 2004): 25.8 fold
- BMD (BMD10) (uterus weight in rats [2]; [6]): 207 mg/kg
- BMDL (BMDL10) (uterus weight in rats [2]; [6]): 62.66
- BMDU (BMDU10) (uterus weight in rats [2]; [6]): 516.80
- BMD (BMD10) (uterus weight in rats [2]; [7]): 8.02 mg/kg
- BMDL (BMDL10) (uterus weight in rats [2]; [7]): 1.00
- BMDU (BMDU10) (uterus weight in rats [2]; [7]): 37.13
- Cmax ([3]; 10 mg/kg bw, ref Pottenger et al. (2000)): 175 nM
- Cmax ([3]; 100 mg/kg bw, ref Pottenger et al. (2000)): 9880 nM
- Mean value of uterus weight (uterus weight in rats [4]; rat (AP), 10 mg/kg bw, ref Tinwell and Ashby 2004): 23.9 mg
- Mean value of uterus weight (uterus weight in rats [4]; rat (AP), 100 mg/kg bw, ref Tinwell and Ashby 2004): 29.0 mg
- Mean value of uterus weight (uterus weight in rats [4]; rat (AP), 300 mg/kg bw, ref Tinwell and Ashby 2004): 38.5 mg
- Mean value of uterus weight (uterus weight in rats [4]; rat (AP), 600 mg/kg bw, ref Tinwell and Ashby 2004): 41.4 mg
- Mean value of uterus weight (uterus weight in rats [4]; rat (AP), 800 mg/kg bw, ref Tinwell and Ashby 2004): 59.0 mg
- Mean value of uterus weight (uterus weight in rats [4]; rat (Sprague–Dawley), 60 mg/kg bw, ref Kanno et al. 2003): 26.8 mg
- Mean value of uterus weight (uterus weight in rats [4]; rat (Sprague–Dawley), 200 mg/kg bw, ref Kanno et al. 2003): 30.1 mg
- Mean value of uterus weight (uterus weight in rats [4]; rat (Sprague–Dawley), 375 mg/kg bw, ref Kanno et al. 2003): 30.4 mg
- Mean value of uterus weight (uterus weight in rats [4]; rat (Sprague–Dawley), 600 mg/kg bw, ref Kanno et al. 2003): 37.0 mg
- Mean value of uterus weight (uterus weight in rats [4]; rat (Sprague–Dawley), 1000 mg/kg bw, ref Kanno et al. 2003): 44.1 mg
- Predicted BMDL10 fold higher than BMDL10 of the in vivo data ([5]; in vivo data from Tinwell and Ashby (2004)): 4.7 fold
- Predicted BMDL10 fold lower than BMDL10 of the in vivo data ([5]; in vivo data of Kanno et al. (2003)): 13.4 fold

- fraction unbound at 5 h, 5 µM [1]: 0.628 ± 0.012
- BMD (BMD10) (uterus weight in rats [2]; [8]): 0.0134 mg/kg
- BMDL (BMDL10) (uterus weight in rats [2]; [8]): 0.002915
- BMDU (BMDU10) (uterus weight in rats [2]; [8]): 0.03371
- Predicted BMDL10 lower than that of BPA ([5]; YES assay-based prediction): 4 orders of magnitude
SMILES: C[C@]12CC[C@@H]3c4ccc(O)cc4CC[C@H]3[C@@H]1CC[C@@H]2O [E2, 17β-estradiol]
- Higher concentrations required for an estrogenic response in the YES assay than in MCF-7/BOS proliferation and U2OS ER-CALUX assays (human ERs): 2 orders of magnitude
- Cmax ([3]; 0.02 mg/kg bw, ref Bawarshi-Nassar et al. (1989)): 0.6 nM
- Cmax ([3]; 0.08 mg/kg bw, ref Bawarshi-Nassar et al. (1989)): 2.7 nM
- Mean value of uterus weight (uterus weight in rats [4]; rat (AP), 0.01 mg/kg bw, ref Odum et al., 1997): 37.5 mg
- Mean value of uterus weight (uterus weight in rats [4]; rat (AP), 0.02 mg/kg bw, ref Odum et al., 1997): 39 mg
- Mean value of uterus weight (uterus weight in rats [4]; rat (AP), 0.04 mg/kg bw, ref Odum et al., 1997): 38.3 mg
- Mean value of uterus weight (uterus weight in rats [4]; rat (AP), 0.10 mg/kg bw, ref Odum et al., 1997): 68.1 mg
- Mean value of uterus weight (uterus weight in rats [4]; rat (AP), 0.20 mg/kg bw, ref Odum et al., 1997): 70.9 mg
- Mean value of uterus weight (uterus weight in rats [4]; rat (AP), 0.40 mg/kg bw, ref Odum et al., 1997): 101.7 mg
